Converted amounts (≈) assume the structure as drawn. The source made the active and inactive calls. No cut-off for these calls is given here.
Key:
Assay type in all cases: functional
B16 [1] = test: Antitumor activity against mouse B16 cells xenografted in mouse assessed as increase in life span at 6 to 12 mg/kg/day, ip after 9 days; conditions: route intraperitoneal
L1210 [2] = test: Antitumor activity against mouse L1210 cells xenografted in mouse assessed as increase in life span at 6.25 mg/kg/day, ip after 9 days; conditions: route intraperitoneal
P388 [3] = test: Antitumor activity against mouse P388 cells xenografted in mouse assessed as increase in life span at 6.25 mg/kg/day, ip after 9 days; conditions: route intraperitoneal
[4] = Antitumor activity against mouse CD8F1 cells xenografted in mouse assessed as increase in life span at 25 mg/kg, sc Q7D after 5 days; conditions: route subcutaneous
L1210 [5] = test: Inhibition of DNA synthesis in mouse L1210 cells; conditions: read-out: ID50 (the source's name)
B16 [6] = test: Antitumor activity against mouse B16 cells xenografted in mouse assessed as increase in life span at 20 mg/kg/day, ip after 9 days; conditions: route intraperitoneal
P388 [7] = test: Antitumor activity against mouse P388 cells xenografted in mouse assessed as increase in life span at 3.13 mg/kg/day, iv after 9 days
L1210 [8] = test: Inhibition of RNA synthesis in mouse L1210 cells at 10 nmole/ml
B16 [9] = test: Antitumor activity against mouse B16 cells xenografted in mouse assessed as increase in life span at 5 mg/kg/day, ip after 9 days; conditions: route intraperitoneal
B16 [10] = test: Antitumor activity against mouse B16 cells xenografted in mouse assessed as increase in life span at 2.5 mg/kg/day, ip after 9 days; conditions: route intraperitoneal
L1210 [11] = test: Antitumor activity against mouse L1210 cells xenografted in mouse assessed as increase in life span at 3.13 mg/kg/day, ip after 9 days; conditions: route intraperitoneal
P388 [12] = test: Antitumor activity against mouse P388 cells xenografted in mouse assessed as increase in life span at 3.13 mg/kg/day, ip after 9 days; conditions: route intraperitoneal
P388 [13] = test: Antitumor activity against mouse P388 cells xenografted in mouse assessed as increase in life span at 6.25 mg/kg/day, iv after 9 days
L1210 [14] = test: Antitumor activity against mouse L1210 cells xenografted in mouse assessed as increase in life span at 12.5 mg/kg/day, ip after 9 days; conditions: route intraperitoneal
[15] = tested on: Lewis lung carcinoma cell line; test: Antitumor activity against mouse LLC cells xenografted in mouse assessed as increase in life span at 12.5 mg/kg/day, ip after 9 days; conditions: route intraperitoneal
L1210 [16] = test: Inhibition of RNA synthesis in mouse L1210 cells; conditions: read-out: ID50 (the source's name)
L1210 [17] = test: Cytotoxicity against mouse L1210 cells; conditions: Mus musculus, L1210, read-out: ID50
P388 [18] = test: Antitumor activity against mouse P388 cells xenografted in mouse assessed as increase in life span at 12.5 mg/kg/day, ip after 9 days; conditions: route intraperitoneal
P388 [19] = test: Antitumor activity against mouse P388 cells xenografted in mouse assessed as increase in life span at 12.5 mg/kg/day, iv after 9 days
MC-38 = test: Antitumor activity against mouse Colon 38 cells xenografted in mouse assessed as increase in life span at 25 mg/kg, sc Q7D after 2 days; conditions: route subcutaneous
P388 [20] = test: Antitumor activity against mouse P388 cells xenografted in mouse assessed as increase in life span at 12.5 mg/kg/day, po after 9 days
Colon 26 = test: Antitumor activity against mouse Colon 26 cells xenografted in mouse assessed as increase in life span at 25 mg/kg, ip Q4D after 2 days; conditions: route intraperitoneal
B16 [21] = test: Antitumor activity against mouse B16 cells xenografted in mouse assessed as increase in life span at 10 mg/kg/day, ip after 9 days; conditions: route intraperitoneal
B16 [22] = test: Antitumor activity against mouse B16 cells xenografted in mouse assessed as increase in life span at 12.5 mg/kg/day, ip after 9 days; conditions: route intraperitoneal
B16 [23] = test: Antitumor activity against mouse B16 cells xenografted in mouse assessed as increase in life span at 2 mg/kg/day, ip after 9 days; conditions: route intraperitoneal
P388 [24] = test: Antitumor activity against mouse P388 cells xenografted in mouse assessed as increase in life span at 2 mg/kg/day, ip after 9 days; conditions: route intraperitoneal
L1210 [25] = test: Antitumor activity against mouse L1210 cells xenografted in mouse assessed as increase in life span at 2 mg/kg/day, ip after 9 days; conditions: route intraperitoneal
P388 [26] = test: Antitumor activity against mouse P388 cells xenografted in mouse assessed as increase in life span at 0.5 mg/kg/day, ip after 9 days; conditions: route intraperitoneal
P388 [27] = test: Antitumor activity against mouse P388 cells xenografted in mouse assessed as increase in life span at 0.5 mg/kg/day, iv after 9 days
P388 [28] = test: Antitumor activity against mouse P388 cells xenografted in mouse assessed as increase in life span at 0.25 mg/kg/day, ip after 9 days; conditions: route intraperitoneal
P388 [29] = test: Antitumor activity against mouse P388 cells xenografted in mouse assessed as increase in life span at 0.25 mg/kg/day, iv after 9 days
L1210 [30] = test: Antitumor activity against mouse L1210 cells xenografted in mouse assessed as increase in life span at 0.5 mg/kg/day, ip after 9 days; conditions: route intraperitoneal
B16 [31] = test: Antitumor activity against mouse B16 cells xenografted in mouse assessed as increase in life span at 0.25 mg/kg/day, ip after 9 days; conditions: route intraperitoneal
L1210 [32] = test: Antitumor activity against mouse L1210 cells xenografted in mouse assessed as increase in life span at 1 mg/kg/day, ip after 9 days; conditions: route intraperitoneal
L1210 [33] = test: Antitumor activity against mouse L1210 cells xenografted in mouse assessed as increase in life span at 0.25 mg/kg/day, ip after 9 days; conditions: route intraperitoneal
B16 [34] = test: Antitumor activity against mouse B16 cells xenografted in mouse assessed as increase in life span at 0.5 mg/kg/day, ip after 9 days; conditions: route intraperitoneal
P388 [35] = test: Antitumor activity against mouse P388 cells xenografted in mouse assessed as increase in life span at 1 mg/kg/day, iv after 9 days
P388 [36] = test: Antitumor activity against mouse P388 cells xenografted in mouse assessed as increase in life span at 2 mg/kg/day, iv after 9 days
P388 [37] = test: Antitumor activity against mouse P388 cells xenografted in mouse assessed as increase in life span at 1 mg/kg/day, ip after 9 days; conditions: route intraperitoneal
B16 [38] = test: Antitumor activity against mouse B16 cells xenografted in mouse assessed as increase in life span at 1 mg/kg/day, ip after 9 days; conditions: route intraperitoneal

## CO[C@H]1C[C@@](C)(O)Cc2cc3c(c(O)c21)C(=O)c1c(O)cc2c(c1C3=O)O[C@@H]1O[C@@]2(C)[C@H](O)[C@@H](N(C)C)[C@@H]1O
B16 [1]
  Activity: 77%
L1210 [2]
  Activity: 55%
P388 [3]
  Activity: 111%
[4]
  Activity: 1%
L1210 [5]
  IC50: > 46 µM
B16 [6]
  Activity: -9%
P388 [7]
  Activity: 25%
L1210 [8]
  inhibition (INH): 0%
B16 [9]
  Activity: 88%
B16 [10]
  Activity: 64%
L1210 [11]
  Activity: 42%
P388 [12]
  Activity: 61%
P388 [13]
  Activity: 53%
L1210 [14]
  Activity: 140%
[15]
  Activity: 38%
L1210 [16]
  IC50: > 46 µM
L1210 [17]
  IC50: 0.061 µg/mL (≈ 0.113 µM)
P388 [18]
  Activity: 197%
P388 [19]
  Activity: 187%
MC-38
  Activity: 21%
P388 [20]
  Activity: 48%
Colon 26
  Activity: 106%
B16 [21]
  Activity: 114%
B16 [22]
  Activity: 109%

## COc1cccc2c1C(=O)c1c(O)c3c(c(O)c1C2=O)C[C@@](O)(C(=O)CO)C[C@@H]3O[C@H]1C[C@H](N)[C@H](O)[C@H](C)O1 [DOXORUBICIN]
B16 [23]
  Activity: 158%
P388 [24]
  Activity: 7%
L1210 [25]
  Activity: 40%
P388 [26]
  Activity: 137%
P388 [27]
  Activity: 3%
P388 [28]
  Activity: 61%
P388 [29]
  Activity: 8%
L1210 [30]
  Activity: 29%
B16 [31]
  Activity: 127%
L1210 [32]
  Activity: 38%
L1210 [33]
  Activity: 20%
B16 [34]
  Activity: 160%
P388 [35]
  Activity: 10%
P388 [36]
  Activity: 29%
P388 [20]
  Activity: inactive
P388 [37]
  Activity: 158%
B16 [38]
  Activity: 166%
